Measured values: article PMC4750079, “Tackling amyloidogenesis in Alzheimer’s disease with A2V variants of Amyloid-β” (Scientific Reports, 2016)
Where a SMILES comes first, the peptide text is derived from it. [ ]: non-standard residue; d: D form.

Experiments:
APPswe/PS1dE9 mice = assay: Serum IgG against Aβ peptides after chronic treatment (ELISA); format: in vivo, mouse; conditions: once a week for 5 months, n = 9
Experimental: Figure 8 Serum levels of IgG against Aβ peptides after chronic treatment with Aβ1-6A2VTAT(D). To verify whether Aβ1-6A2VTAT(D) administration once a week for 5 months was associated with an immune response, we collected blood from mice before (T0) and at the end of the treatment (T2). Sera from saline (n = 8) and Aβ1-6A2VTAT(D) (n = 9) treated mice were tested induplicate using ELISA for the presence of IgG against Aβ1-6A2VTAT(D) (A), the full-length Aβ1-42 (B), Aβ1-6A2V (C) and TAT(D) (D).
Sera were collected from mice before (T0) and at the end of the treatment (5 months), and tested using ELISA for the presence of IgG against Aβ1-6A2VTAT(D), the full-length Aβ1-42, Aβ1-6A2V(D) and TAT(D) following previously described protocols for antigen-specific mouse IgG detection, except blocking buffer that was PBS 3% milk. Anti-Aβ1-42 IgG antibodies from 6E10 IgG clone (Covance), and sera from mice immunized with Aβ1-6A2VTAT(D) or with Aβ1-6A2V emulsified in Complete Freund’s adjuvant were used as positive controls.

SH-SY5Y cells = assay: Toxicity of peptides on differentiated SH-SY5Y cells (MTT test); format: cell-based, human; conditions: 24 h
Experimental: Figure 2 Analysis of the effects of Aβ1-6WT(D), Aβ1-6A2V(D) and Aβ1-6A2VTAT(D) on neurotoxicity in cell models. SH-SY5Y cells were differentiated with 10 μM retinoic acid. […] Comparison of cell viability was performed by Student t-test.
(§1) Toxicity studies with Aβ1-6WT(D), Aβ1-6A2V(D) or Aβ1-6A2VTAT(D) and the short peptides’ ability to inhibit the toxicity induced by Aβ1-42WT in SH-SY5Y cell cultures were analyzed following previously described protocols. Each experiment was performed in triplicate; the data provided were obtained as the mean of three independent assays.

Aβ1-42WT [1] = biological target: T1, Aβ1-42WT (Homo sapiens, UniProt P05067); assay: Atomic force microscopy of Aβ1-42WT oligomerization; format: biochemical; conditions: Aβ1-42WT 100 μM co-incubated with peptide 1:4, pH 7.4, 4 °C, 24 h, AFM
T1 construct: Aβ1-42WT oligomers were formed following incubation of Aβ1-42WT at a final concentration of 100 μM; made in house; host or cells: chemical synthesis (solid-phase Fmoc), no expression host
Experimental: (§2) In polarized-light and EM studies, both peptides were used at 0.125 mM, molar ratio = 1:1 or 1:4 respectively, with 20 days incubation. […] E,F: Representative Tapping mode of AFM images as determined by amplitude error data of Aβ1-42WT oligomers. Aβ1-42WT peptide 100 μM in phosphate buffer 50 mM, pH 7.4 was incubated at 4 °C for 24 h alone (E) (Z range: -10/ + 10 mV) or in presence of Aβ1-6A2VTAT(D) (F) (Z range: -10/ + 25 mV). The molar ratio of Aβ1-42WT to Aβ1-6A2VTAT(D) was 1:4. Scale bar: 1 μm, inset: 200 nm. (G,H): height plot profiles obtained along different lines traced on the topographic AFM images.
Aβ1-42WT oligomers were formed following incubation of Aβ1-42WT at a final concentration of 100 μM in phosphate buffer 50 mM, pH 7.4 at 4 °C for 24 h, alone or in presence of Aβ1-6A2VTAT(D), at 1:4 molar ratio. Sample solutions were diluted to a final concentration of 10 μM of Aβ1-42WT with phosphate buffer and 50 μl of each solution was immediately added onto freshly cleaved mica at room temperature for 2 minutes. Samples were washed and dried under gentle nitrogen flow. AFM analyses were carried out on a Multimode AFM with a Nanoscope V system (Veeco/Digital Instruments). AFM images were analysed using the Scanning Probe Image Processor data analysis package. All the topographic patterns and SPIP characterization were verified via additional measurements on a minimum of five different, well separated areas.

[2] = system: Aβ1-42WT toxicity in SH-SY5Y cells; assay: Inhibition of the toxicity induced by Aβ1-42WT in SH-SY5Y cell cultures (MTT test); format: cell-based, human; conditions: differentiated SH-SY5Y, co-incubated with Aβ1-42WT, 24 h
Experimental: Figure 2 Analysis of the effects of Aβ1-6WT(D), Aβ1-6A2V(D) and Aβ1-6A2VTAT(D) on neurotoxicity in cell models. SH-SY5Y cells were differentiated with 10 μM retinoic acid. After 6 days the proper peptide was added to culture medium and cell viability was assessed after 24 h by MTT test. […] Conversely, Aβ1-42WT reduces cell viability by 35%. * Significance vs non-treated cells. (C,D) Both Aβ1-6WT(D) and Aβ1-6A2V(D) are able to counteract the toxic effect of Aβ1-42WT. […] Comparison of cell viability was performed by Student t-test.
as §1

Aβ1-42WT [3] = biological target: T1, Aβ1-42WT; assay: Polarized light and electron microscopy of Aβ1-42WT aggregates; format: biochemical; conditions: 20 days incubation, 37 °C, molar ratio 1:1 or 1:4
Experimental: as §2, with “Figure 3 Inhibition of aggregation of Aβ1-42WT by Aβ1-6A2VTAT(D). Polarized-light (A,B), electron microscopy (C,D) and atomic force microscopy (AFM) (E–H) studies showing the inhibitory effects of Aβ1-6A2VTAT(D) on amyloid formation, fibril production and oligomerization by Aβ1-42WT. In” for “In”
Aβ1-42WT, Aβ1-6A2VTAT(D) were dissolved in 10 mM NaOH and then diluted in an equal volume of 100 mM Tris-HCl, pH 7.0, to final concentrations (0.250 mM). […] The samples were incubated at 37 °C, and the tinctorial and ultrastructural properties of the peptide assemblies were determined at various intervals, ranging from 1 h to 20 days, as previously described. […]

T1 sequence (P05067 672-713 limits assumed): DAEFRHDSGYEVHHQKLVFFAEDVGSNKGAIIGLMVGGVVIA

## CC(C)[C@@H](NC(=O)[C@H](N)CC(=O)O)C(=O)N[C@H](CCC(=O)O)C(=O)N[C@H](Cc1ccccc1)C(=O)N[C@H](CCCNC(=N)N)C(=O)N[C@H](Cc1c[nH]cn1)C(=O)NCC(=O)NCC(=O)NCC(=O)NCC(=O)NCC(=O)N[C@H](CCCNC(=N)N)C(=O)N[C@H](CCCCN)C(=O)N[C@H](CCCCN)C(=O)N[C@H](CCCNC(=N)N)C(=O)N[C@H](CCCNC(=N)N)C(=O)N[C@H](CCC(N)=O)C(=O)N[C@H](CCCNC(=N)N)C(=O)N[C@H](CCCNC(=N)N)C(=O)N[C@H](CCCNC(=N)N)C(=O)O [Aβ1-6A2VTAT(D)] (H-[dD][dV][dE][dF][dR][dH]GGGGG[dR][dK][dK][dR][dR][dQ][dR][dR][dR]-OH; N-terminus assumed)
APPswe/PS1dE9 mice
  serum IgG against Aβ1-6A2V peptide: did not induce production of IgG
  serum IgG against Aβ1-6A2VTAT(D): not negligible levels
  serum IgG against TAT(D): 3 out of 9 mice displayed slightly increased levels
  serum IgG against full-length Aβ: not negligible levels
SH-SY5Y cells; 1 to 5 μM
  toxicity at concentrations between 1 and 5 μM: not toxic
SH-SY5Y cells; higher concentrations
  toxicity at concentrations higher than 5 μM: reduces cell viability at higher concentrations
Aβ1-42WT [1]
  diameter of very small globular structures (~70%): 5-8 nm
  oligomeric structures of Aβ1-42WT detected: only rare oligomeric structures were detected
[2]
  effect on toxicity induced by Aβ1-42WT: significant dose-dependent reduction of the toxicity
Aβ1-42WT [3]
  amount of fibrils generated by Aβ1-42WT (electron microscopy): reduces the amount of fibrils generated by the full-length peptide
  formation of amyloid structures by Aβ1-42WT (polarized light): hinders the formation of amyloid structures
